From patent publication US9422240B2, “Partially saturated nitrogen-containing heterocyclic compound” (TAISHO PHARMACEUTICAL CO., LTD, priority 2012, dated 2016)
Structures can show the parent of a compound that is named as a salt.

The compounds below were run against human PHD2 (Homo sapiens (Human), UniProt Q9GZT9) (assay: Test 2: human PHD2 inhibitory activity, fluorescence polarization assay of HIF-1α peptide proline hydroxylation). Details: human PHD2, fluorescence polarization assay, 20-min incubation at 30° C.
Assay type: biochemical
Protocol: (1) Expression and Preparation of Human PHD2
A registered sequence of human PHD2 (NM_022051) was introduced into pcDNA3.1/Hygro(+) vector (Invitrogen), and the sequence was verified. […] The suspension of disrupted cells was centrifuged at 4° C. and 100,000×g for 30 minutes and the supernatant was recovered as a cell lysate.
(2) Measurement of Human PHD2 Inhibitory Activity
The activity of human PHD2 enzyme was measured with a substrate which is a 19-residue partial peptide based on the sequence of HIF-1α; specifically, the hydroxylation of a proline residue in the peptide was measured by FP (Fluorescence Polarization).
A test compound and the substrate solution were preliminarily added onto 384-well plates and reaction was initiated by adding a human PHD2 enzyme solution (40 ng/well). After 20-min incubation at 30° C., an EDTA-containing quench solution was added and the amount of the proline residues hydroxylated via binding to an added HIF—OH antibody solution was quantified by fluorescence polarization.
The fluorescence polarization of each well was measured and the human PHD2 inhibitory activity of each test compound was calculated on the basis of the values for the test compound-free group.

Chain of human PHD2 (Q9GZT9 whole entry): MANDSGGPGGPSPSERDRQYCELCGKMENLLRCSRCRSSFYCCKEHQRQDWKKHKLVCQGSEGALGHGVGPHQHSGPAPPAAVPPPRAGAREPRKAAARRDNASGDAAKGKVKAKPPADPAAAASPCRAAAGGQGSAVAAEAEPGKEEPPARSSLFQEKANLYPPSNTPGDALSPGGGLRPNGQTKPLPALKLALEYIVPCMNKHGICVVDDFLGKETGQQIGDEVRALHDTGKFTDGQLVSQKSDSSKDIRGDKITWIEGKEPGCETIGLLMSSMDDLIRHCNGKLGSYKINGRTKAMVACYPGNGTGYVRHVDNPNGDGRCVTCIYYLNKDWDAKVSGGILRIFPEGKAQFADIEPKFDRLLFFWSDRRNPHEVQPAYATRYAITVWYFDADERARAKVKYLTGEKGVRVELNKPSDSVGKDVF

| SMILES | IC50 |
| --- | --- |
| O=C(O)CNC(=O)C1=C(O)CCN(Cc2ccc(Oc3ccc(C(F)(F)F)nc3)cc2)C1=O [Ex. 1-365] | 56 nM |
| Cc1ccc(Oc2ncc(CN3CCC(O)=C(C(=O)NCC(=O)O)C3=O)cc2F)cc1 [Ex. 1-393] | 32 nM |
| Cc1cc(Oc2ccc(CN3CCC(O)=C(C(=O)NCC(=O)O)C3=O)cn2)ccc1F [Ex. 1-368] | 41 nM |
| O=C(O)CNC(=O)C1=C(O)CCN(Cc2cnc(Oc3ccc(C4CC4)cc3)cn2)C1=O [Ex. 1-443] | 21 nM |
| Cc1ccc(Oc2cnc(CN3CCC(O)=C(C(=O)NCC(=O)O)C3=O)cn2)cc1 [Ex. 1-385] | 54 nM |

Same assay, conditions: read-out: Percent inhibition (% at 1 μM)

| SMILES | inhibition at 1 µM |
| --- | --- |
| CC1(C)CC(O)=C(C(=O)NCC(=O)O)C(=O)N1CC(=O)NCc1ccc(-c2ccccc2)cc1 [Ex. 10-1, N-[(1-{2-[(4-Biphenylylmethyl)amino]-2-oxoethyl}-4-hydroxy-6,6-dimethyl-2-oxo-1,2,5,6-tetrahydro-3-pyridinyl)carbonyl]glycine sodium salt] | 34% |
| O=C(O)CNC(=O)C1=C(O)CCN(Cc2ccc(C3=CCC(F)(F)CC3)cc2)C1=O [Ex. 1-467, N-({1-[4-(4,4-difluoro-1-cyclohexen-1-yl)benzyl]-4-hydroxy-2-oxo-1,2,5,6-tetrahydro-3-pyridinyl}carbonyl)glycine sodium salt] | 95% |

Same assay, conditions: test compound's concentration 1 μM; Test 2, fluorescence polarization assay

| SMILES | Percent inhibition (% at 1 μM) |
| --- | --- |
| O=C(O)CNC(=O)C1=C(O)CCN(CC2CCC(Oc3ccccc3)CC2)C1=O (stereo not drawn) [Ex. 1-391] | 82% |

Same assay, conditions: test compound's concentration 1 μM; Test 2, fluorescence polarization assay; read-out: Percent inhibition (% at 1 μM)

| inhibition at 1 µM | SMILES |
| --- | --- |
| 68% | CC1(C)CC(O)=C(C(=O)NCC(=O)O)C(=O)N1Cc1ccc(OCC2CC2)nn1 [Ex. 6-33] |
| 95% | O=C(O)CNC(=O)C1=C(O)CCN(Cc2ccc(-c3ccc(OC(F)(F)F)cc3)nc2)C1=O [Ex. 2-36] |
| 95% | O=C(O)CNC(=O)C1=C(O)CCN(Cc2ccc(-c3cnc(O)s3)cc2)C1=O [Ex. 2-43] |
| 88% | O=C(O)CNC(=O)C1=C(O)CC2(CCN(Cc3ccccc3)CC2)N(Cc2ccc(-c3ccccc3)cc2)C1=O [Ex. 7-2, N-{[9-Benzyl-1-(4-biphenylylmethyl)-4-hydroxy-2-oxo-1,9-diazaspiro[5.5]undec-3-en-3-yl]carbonyl}glycine trifluoroacetate] |
| 30% | CN(C)C[C@@H]1CC(O)=C(C(=O)NCC(=O)O)C(=O)N1Cc1ccc(OCC2CC2)cc1 [Ex. 6-36] |
| 10% | CC1C(O)=C(C(=O)NCCC(=O)O)C(=O)N1Cc1ccc(-c2ccccc2)cc1 (stereo not drawn) [Ex. 6-4] |
| 85% | CN(C)C(=O)c1ccc(-c2ccc(CN3CCC(O)=C(C(=O)NCC(=O)O)C3=O)cc2)cc1 [Ex. 2-32] |
| 92% | COc1ncccc1-c1ccc(CN2CCC(O)=C(C(=O)NCC(=O)O)C2=O)cc1 [Ex. 2-3, N-({4-Hydroxy-1-[4-(2-methoxy-3-pyridinyl)benzyl]-2-oxo-1,2,5,6-tetrahydro-3-pyridinyl}carbonyl)glycine sodium salt] |
| 70% | COC[C@@H]1CC(O)=C(C(=O)NCC(=O)O)C(=O)N1Cc1ccc(OCC2CC2)cc1 [Ex. 6-34] |
| 86% | O=C(O)CNC(=O)C1=C(O)CN(Cc2ccc(OCC3CC3)cc2)C1=O [Ex. 6-7] |
| 96% | Cc1ccc(-c2ccc(CN3CCC(O)=C(C(=O)NCC(=O)O)C3=O)nc2)cc1 [Ex. 2-44] |
| 85% | O=C(O)CNC(=O)C1=C(O)C[C@@H](Cc2ccccc2)N(Cc2ccc(OCC3CC3)cc2)C1=O [Ex. 6-21] |
| 24% | CC1(C)CC(O)=C(C(=O)NCC(=O)O)C(=O)N1CC1CCN(C(=O)CC2CC2)CC1 [Ex. 6-18] |
| 95% | COc1ccccc1-c1ccc(CN2CCC(O)=C(C(=O)NCC(=O)O)C2=O)cn1 [Ex. 2-52] |
| 97% | O=C(O)CNC(=O)C1=C(O)CCN(Cc2ccc(-c3ccc(C(=O)O)cc3)cc2)C1=O [Ex. 2-34] |
| 51% | CC(C)[C@H]1CC(O)=C(C(=O)NCC(=O)O)C(=O)N1Cc1ccc(OCC2CC2)cc1 [Ex. 6-27] |
| 3% | COc1ccc(CN2CCC(O)=C(C(=O)N(C)CC(=O)O)C2=O)cc1 [Ex. 9-5, N-{[4-Hydroxy-1-(4-methoxybenzyl)-2-oxo-1,2,5,6-tetrahydro-3-pyridinyl]carbonyl}-N-methylglycine] |
| 85% | O=C(O)CNC(=O)C1=C(O)C2(CCCCC2)CN(Cc2ccc(OCC3CC3)cc2)C1=O [Ex. 6-23] |

The remaining lines, values behind:

| SMILES | inhibition at 1 µM |
| --- | --- |
| O=C(O)CNC(=O)C1=C(O)CCN(Cc2ccc(OCc3ccccc3)c(F)c2)C1=O [Ex. 1-374] | 96% |
| Cc1ccc(CO[C@H]2CC[C@H](CN3CCC(O)=C(C(=O)NCC(=O)O)C3=O)CC2)cc1 [Ex. 1-450] | 97% |
| O=C(O)CNC(=O)C1=C(O)CCN(Cc2ccc(OCCC(F)(F)F)c(F)c2)C1=O [Ex. 1-384] | 82% |
| O=C(O)CNC(=O)C1=C(O)CCN(Cc2ccc(Oc3ccc(C(F)(F)F)nc3)cc2)C1=O [Ex. 1-365] | 97% |
| O=C(O)CNC(=O)C1=C(O)CCN(Cc2ccc(C(=O)NCCN3CCCC3=O)cc2)C1=O [Ex. 1-350] | 61% |
| COc1ccc(-c2ccc(CN3CC(C)(C)C(O)=C(C(=O)NCC(=O)O)C3=O)cc2)cn1 [Ex. 1-358] | 88% |
| COc1ccnc(-c2ccc(CN3CCC(O)=C(C(=O)NCC(=O)O)C3=O)cc2)c1 [Ex. 1-436] | 85% |
| Cc1ccc(Oc2ncc(CN3CCC(O)=C(C(=O)NCC(=O)O)C3=O)cc2F)cc1 [Ex. 1-393] | 98% |
| Cc1cc(C)n(COc2ccc(CN3CCC(O)=C(C(=O)NCC(=O)O)C3=O)cc2)n1 [Ex. 1-462] | 87% |
| Cc1cc(Oc2ccc(CN3CCC(O)=C(C(=O)NCC(=O)O)C3=O)cn2)ccc1F [Ex. 1-368] | 101% |
| O=C(O)CNC(=O)C1=C(O)CCN(Cc2ccc(-c3ccc(Cl)cn3)cc2)C1=O [Ex. 1-422] | 100% |
| O=C(O)CNC(=O)C1=C(O)CCN(Cc2ccc(OCc3ccc(Cl)cc3)nc2)C1=O [Ex. 1-419] | 98% |
| O=C(O)CNC(=O)C1=C(O)C(F)(F)CN(Cc2ccc(C(F)(F)F)cc2)C1=O [Ex. 1-334] | 96% |
| O=C(O)CNC(=O)C1=C(O)CCN(Cc2ccc(C(=O)N3CCCCC3)cc2)C1=O [Ex. 1-321] | 84% |
| CN(C)CCNC(=O)c1ccc(CN2CCC(O)=C(C(=O)NCC(=O)O)C2=O)cc1 [Ex. 1-345] | 55% |
| CC(C)CN1CCC(O)=C(C(=O)NCC(=O)O)C1=O [Ex. 1-319] | 42% |
| O=C(O)CNC(=O)C1=C(O)CCN(C[C@H]2CC[C@@H](Oc3ccc(F)cn3)CC2)C1=O [Ex. 1-433] | 76% |
| O=C(O)CNC(=O)C1=C(O)CCN(C[C@H]2CC[C@H](OCc3ccccc3)CC2)C1=O [Ex. 1-444] | 88% |
| CC1(C)CN(Cc2ccc(C3CC3)cc2)C(=O)C(C(=O)NCC(=O)O)=C1O [Ex. 1-362] | 83% |
| O=C(O)CNC(=O)C1=C(O)CCN(Cc2cnc(Oc3ccc(C4CC4)cc3)cn2)C1=O [Ex. 1-443] | 101% |
| Cc1cc(CN2CCC(O)=C(C(=O)NCC(=O)O)C2=O)ccc1OCc1ccccc1 [Ex. 1-381] | 92% |
| Cc1ccc(Oc2cnc(CN3CCC(O)=C(C(=O)NCC(=O)O)C3=O)cn2)cc1 [Ex. 1-385] | 93% |
| O=C(O)CNC(=O)C1=C(O)CC2(CCCCC2)CN(Cc2ccccc2)C1=O [Ex. 1-310] | 59% |
| O=C(O)CNC(=O)C1=C(O)CCN(Cc2ccc(COc3ccccc3)cc2)C1=O [Ex. 1-416] | 95% |
| Cc1cc(CN2CCC(O)=C(C(=O)NCC(=O)O)C2=O)ccc1OCc1ccc(OC(F)(F)F)cc1 [Ex. 1-389] | 69% |
| Cc1cc(CN2CCC(O)=C(C(=O)NCC(=O)O)C2=O)ccc1OCC(F)(F)F [Ex. 1-379] | 84% |
| O=C(O)CNC(=O)C1=C(O)CCN(CC2CCC(Oc3ccccc3)CC2)C1=O (stereo not drawn) [Ex. 1-390] | 89% |
| Cc1cnc(COc2ccc(CN3CCC(O)=C(C(=O)NCC(=O)O)C3=O)cc2)s1 [Ex. 1-406] | 86% |
